In patent US12448392B2, “Spiropiperidine derivatives” (89BIO LTD, priority 2016, dated 2025):
pIC50: −log10 of the molar value. Counter-ions that a name gives are not always drawn. Like-named read-outs stand apart in the source and are kept apart here.

Target: T1, recombinant human baculovirus-expressed GST-tagged FASN (Homo sapiens, UniProt P49327)
T1 construct: GST
Assay: biochemical

[1] = 5 nM FASN, 150 μM NADPH, 10 μM acetyl-CoA, 25 μM malonyl-CoA, 90 minutes incubation, read-out: IC50 data for Compounds of Formula I, Activity

T1 sequence (P49327 whole entry): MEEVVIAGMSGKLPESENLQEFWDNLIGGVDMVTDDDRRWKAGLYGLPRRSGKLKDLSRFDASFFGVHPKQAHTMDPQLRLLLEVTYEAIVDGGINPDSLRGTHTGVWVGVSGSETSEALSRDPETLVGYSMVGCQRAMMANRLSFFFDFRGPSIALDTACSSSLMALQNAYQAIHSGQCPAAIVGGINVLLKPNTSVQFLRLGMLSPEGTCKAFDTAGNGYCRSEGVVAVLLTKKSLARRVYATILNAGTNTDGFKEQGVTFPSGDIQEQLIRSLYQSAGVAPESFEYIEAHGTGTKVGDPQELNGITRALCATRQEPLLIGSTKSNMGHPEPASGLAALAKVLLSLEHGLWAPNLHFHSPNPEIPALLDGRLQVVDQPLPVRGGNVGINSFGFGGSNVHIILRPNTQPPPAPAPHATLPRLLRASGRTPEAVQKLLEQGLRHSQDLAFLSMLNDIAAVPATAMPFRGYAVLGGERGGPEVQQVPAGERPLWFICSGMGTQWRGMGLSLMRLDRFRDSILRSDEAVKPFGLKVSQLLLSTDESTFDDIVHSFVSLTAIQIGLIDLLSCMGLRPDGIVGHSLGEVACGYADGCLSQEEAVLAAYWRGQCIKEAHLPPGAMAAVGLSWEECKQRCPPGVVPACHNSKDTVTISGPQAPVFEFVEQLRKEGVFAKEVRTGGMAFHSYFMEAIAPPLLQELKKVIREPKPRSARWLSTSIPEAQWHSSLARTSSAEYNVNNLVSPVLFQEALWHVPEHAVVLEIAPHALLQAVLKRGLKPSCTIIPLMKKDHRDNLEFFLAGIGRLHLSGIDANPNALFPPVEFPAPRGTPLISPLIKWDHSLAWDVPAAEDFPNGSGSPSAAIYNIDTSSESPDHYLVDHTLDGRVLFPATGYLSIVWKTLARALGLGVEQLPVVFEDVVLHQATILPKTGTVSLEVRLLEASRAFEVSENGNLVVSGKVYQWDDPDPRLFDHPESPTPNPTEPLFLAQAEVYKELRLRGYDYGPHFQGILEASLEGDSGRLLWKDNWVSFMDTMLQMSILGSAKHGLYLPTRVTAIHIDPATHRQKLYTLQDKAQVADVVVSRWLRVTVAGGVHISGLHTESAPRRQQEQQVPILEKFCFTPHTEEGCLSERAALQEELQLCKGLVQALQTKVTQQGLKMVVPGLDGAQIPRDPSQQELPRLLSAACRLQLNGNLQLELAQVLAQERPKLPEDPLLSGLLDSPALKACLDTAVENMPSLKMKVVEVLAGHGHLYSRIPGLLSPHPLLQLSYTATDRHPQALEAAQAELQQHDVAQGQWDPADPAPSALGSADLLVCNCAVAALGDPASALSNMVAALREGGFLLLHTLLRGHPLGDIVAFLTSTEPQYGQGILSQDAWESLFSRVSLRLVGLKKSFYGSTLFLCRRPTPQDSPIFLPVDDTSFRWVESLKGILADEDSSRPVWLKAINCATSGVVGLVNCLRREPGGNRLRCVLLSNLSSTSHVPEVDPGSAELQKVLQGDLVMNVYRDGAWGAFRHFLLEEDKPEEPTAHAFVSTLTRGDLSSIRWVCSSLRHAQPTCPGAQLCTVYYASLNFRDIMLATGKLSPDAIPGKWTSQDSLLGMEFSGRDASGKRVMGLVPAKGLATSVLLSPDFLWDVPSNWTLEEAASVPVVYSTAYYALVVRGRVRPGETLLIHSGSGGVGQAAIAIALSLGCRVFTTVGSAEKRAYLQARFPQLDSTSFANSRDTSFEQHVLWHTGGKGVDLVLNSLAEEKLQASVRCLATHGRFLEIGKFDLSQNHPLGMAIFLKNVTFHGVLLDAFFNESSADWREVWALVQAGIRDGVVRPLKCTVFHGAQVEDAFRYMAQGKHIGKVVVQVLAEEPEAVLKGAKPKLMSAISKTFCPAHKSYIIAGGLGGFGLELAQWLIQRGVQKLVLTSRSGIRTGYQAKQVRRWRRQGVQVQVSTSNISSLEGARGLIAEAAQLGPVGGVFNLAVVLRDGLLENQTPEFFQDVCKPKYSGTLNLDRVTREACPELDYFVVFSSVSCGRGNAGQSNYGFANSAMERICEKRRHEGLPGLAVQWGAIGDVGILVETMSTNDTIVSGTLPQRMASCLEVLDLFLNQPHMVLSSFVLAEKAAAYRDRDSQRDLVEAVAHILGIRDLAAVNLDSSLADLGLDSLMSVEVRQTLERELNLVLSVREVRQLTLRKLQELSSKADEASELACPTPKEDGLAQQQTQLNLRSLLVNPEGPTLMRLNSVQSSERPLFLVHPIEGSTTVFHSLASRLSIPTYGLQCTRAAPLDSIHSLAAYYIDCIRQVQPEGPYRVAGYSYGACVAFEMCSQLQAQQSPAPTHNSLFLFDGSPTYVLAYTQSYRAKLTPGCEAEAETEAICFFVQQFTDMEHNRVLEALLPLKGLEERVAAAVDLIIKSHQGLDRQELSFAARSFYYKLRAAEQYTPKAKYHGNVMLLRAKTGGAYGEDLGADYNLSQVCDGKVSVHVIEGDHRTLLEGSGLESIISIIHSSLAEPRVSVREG

SMILES | pIC50 | pIC50 [1]
CCONC(=O)N1CCC2(CC1)OCc1cc(-c3ccc4cccnc4c3C)ccc1O2 [Example 121, N-Ethoxy-6-(8-methyl-7-quinolyl)spiro[4H-1,3-benzodioxine-2,4′-piperidine]-1′-carboxamide] | 7.00 to 9.00 | 
Cc1nccc2cc(-c3ccc4c(c3)COC3(CCN(C(=O)C5CC5)CC3)O4)ccc12 [Example 22, Cyclopropyl-[6-(1-methyl-6-isoquinolyl)spiro[4H-1,3-benzodioxine-2,4′-piperidine]-1′-yl]methanone] | 7.00 to 9.00 | 
O=C(NO)N1CCC2(CC1)OCc1cc(-c3cc4ccccc4cn3)ccc1O2 [Example 150, 6-(3-Isoquinolyl)spiro[4H-1,3-benzodioxine-2,4′-piperidine]-1′-carbohydroxamic acid] | 5.00 to 6.00 | 
CC(C)C(=O)N1CCC2(CC1)OCc1cc(-c3ccc4cccnc4c3)ccc1O2 [Example 31, 2-Methyl-1-[6-(7-quinolyl)spiro[4H-1,3-benzodioxine-2,4′-piperidine]-1′-yl]propan-1-one] | 7.00 to 9.00 | 
Cc1c(-c2ccc3c(c2)CCC2(CCN(C(=O)NOC(C)C)CC2)O3)ccc2cccnc12 [Example 103, N-Isopropoxy-6-(8-methyl-7-quinolyl)spiro[chromane-2,4′-piperidine]-1′-carboxamide] |  | 7.00 to 9.00
COc1c(-c2ccc3c(c2)CC2(CCN(C(N)=O)CC2)O3)ccc2cccnc12 [Example 162, 5-(8-Methoxy-7-quinolyl)spiro[3H-benzofuran-2,4′-piperidine]-1′-carboxamide] |  | 5.00 to 6.00
Cc1nccc2cc(-c3ccc4c(c3)COC3(CCN(C(N)=O)CC3)O4)ccc12 [Example 194, 6-(1-Methyl-6-isoquinolyl)spiro[4H-1,3-benzodioxine-2,4′-piperidine]-1′-carboxamide] | 6.00 to 7.00 | 
Cn1ccc2cc(-c3ccc4c(c3)CCC3(CCN(C(N)=O)CC3)O4)ccc21 [Example 75, 6-(1-Methylindol-5-yl)spiro[chromane-2,4′-piperidine]-1′-carboxamide] |  | 6.00 to 7.00
Cc1c(-c2ccc3c(c2)C(O)CC2(CCN(C(N)=O)CC2)O3)ccc2cccnc12 (stereo not shown) [Example 213, 4-Hydroxy-6-(8-methyl-7-quinolyl)spiro[chromane-2,4′-piperidine]-1′-carboxamide] |  | 6.00 to 7.00
CONC(=O)N1CCC2(CC1)OCc1cc(-c3cc4ccccc4cn3)ccc1O2 [Example 147, 6-(3-Isoquinolyl)-N-methoxy-spiro[4H-1,3-benzodioxine-2,4′-piperidine]-1′-carboxamide] | 7.00 to 9.00 | 
Cc1c(-c2ccc3c(c2)CC2(CCN(C(=O)NO)CC2)O3)ccc2cccnc12 [Example 155, 5-(8-Methyl-7-quinolyl)spiro[3H-benzofuran-2,4′-piperidine]-1′-carbohydroxamic acid] |  | 5.00 to 6.00
O=C(CO)N1CCC2(CCc3cc(-c4ccc5cccnc5c4Cl)ccc3O2)CC1 [Example 67, 1-[6-(8-chloro-7-quinolyl)spiro[chromane-2,4′-piperidine]-1′-yl]-2-hydroxy-ethanone] |  | 5.00 to 6.00
COc1cc(-c2ccc3cccnc3c2C)cc2c1OC1(CCN(C(N)=O)CC1)OC2 [Example 247, 8-Methoxy-6-(8-methyl-7-quinolyl)spiro[4H-1,3-benzodioxine-2,4′-piperidine]-1′-carboxamide] | 5.00 to 6.00 | 
CCOC(=O)N1CCC2(CC1)OCc1cc(-c3cnc4cccnc4c3)ccc1O2 [Example 35, Ethyl 6-(1,5-naphthyridin-3-yl)spiro[4H-1,3-benzodioxine-2,4′-piperidine]-1′-carboxylate] | 5.00 to 6.00 | 
Cc1c(-c2ccc3c(c2)CC2(CCN(C(=O)NOC4CCCCO4)CC2)O3)ccc2ccnn12 (stereo not shown) [Example 171, 5-(7-Methylpyrazolo[1,5-a]pyridin-6-yl)-N-tetrahydropyran-2-yloxy-spiro[3H-benzofuran-2,4′-piperidine]-1′-carboxamide] |  | 5.00 to 6.00
CCC(=O)N1CCC2(CC1)OCc1cc(-c3cnc4ccccc4c3C)ccc1O2 [Example 52, 1-[6-(4-Methyl-3-quinolyl)spiro[4H-1,3-benzodioxine-2,4′-piperidine]-1′-yl]propan-1-one] | 7.00 to 9.00 | 
CCONC(=O)N1CCC2(CC1)OCc1cc(-c3cc4ccccc4cn3)ccc1O2 [Example 145, N-Ethoxy-6-(3-isoquinolyl)spiro[4H-1,3-benzodioxine-2,4′-piperidine]-1′-carboxamide] | 7.00 to 9.00 | 
CCC(=O)N1CCC2(CCc3cc(-c4ccc5cccnc5c4C)ccc3O2)CC1 [Example 6, 1-[6-(8-Methyl-7-quinolyl)spiro[chromane-2,4′-piperidine]-1′-yl]propan-1-one] |  | 7.00 to 9.00
Cc1c(-c2ccc3c(c2)COC2(CCN(C(=O)[C@H]4CCCO4)CC2)O3)ccc2cccnc12 [Example 50, [6-(8-Methyl-7-quinolyl)spiro[4H-1,3-benzodioxine-2,4′-piperidine]-1′-yl]-[(2R)-tetrahydrofuran-2-yl]methanone] | 7.00 to 9.00 | 
CCNC(=O)N1CCC2(CCc3cc(-c4ccc5cccnc5c4C)ccc3O2)CC1 [Example 97, N-Ethyl-6-(8-methyl-7-quinolyl)spiro[chromane-2,4′-piperidine]-1′-carboxamide] |  | 7.00 to 9.00

SMILES | pIC50 | pIC50 [1]
CONC(=O)N1CCC2(CC1)OCc1cc(-c3ccc4cnc(C)cc4c3)ccc1O2 [Example 205, N-Methoxy-6-(3-methyl-6-isoquinolyl)spiro[4H-1,3-benzodioxine-2,4′-piperidine]-1′-carboxamide] | 7.00 to 9.00 | 
CCC(=O)N1CCC2(CC1)OCc1cc(-c3ccc4cccnc4c3C)ccc1O2 [Example 53, 1-[6-(8-Methyl-7-quinolyl)spiro[4H-1,3-benzodioxine-2,4′-piperidine]-1′-yl]propan-1-one] | 7.00 to 9.00 | 
O=C([C@H]1CCCO1)N1CCC2(CC1)OCc1cc(-c3cccnc3)ccc1O2 [Example 229, [6-(3-Pyridyl)spiro[4H-1,3-benzodioxine-2,4′-piperidine]-1′-yl]-[(2R)-tetrahydrofuran-2-yl]methanone] | 6.00 to 7.00 | 
Cc1c(-c2ccc3c(c2)COC2(CCN(C(N)=O)CC2)O3)ccc2cccnc12 [Example 118, 6-(8-Methyl-7-quinolyl)spiro[4H-1,3-benzodioxine-2,4′-piperidine]-1′-carboxamide] | 7.00 to 9.00 | 
CCONC(=O)N1CCC2(CC1)Cc1cc(-c3cnc4ccccc4c3C)ccc1O2 [Example 158, N-ethoxy-5-(4-methyl-3-quinolyl)spiro[3H-benzofuran-2,4′-piperidine]-1′-carboxamide] |  | 5.00 to 6.00
CCNC(=O)N1CCC2(CC1)OCc1cc(-c3ccc4cccnc4c3C)ccc1O2 [Example 117, N-Ethyl-6-(8-methyl-7-quinolyl)spiro[4H-1,3-benzodioxine-2,4′-piperidine]-1′-carboxamide] | 7.00 to 9.00 | 
Cc1nccc2cc(-c3ccc4c(c3)COC3(CCN(C(=O)NOC(C)C)CC3)O4)ccc12 [Example 182, N-Isopropoxy-6-(1-methyl-6-isoquinolyl)spiro[4H-1,3-benzodioxine-2,4′-piperidine]-1′-carboxamide] | 7.00 to 9.00 | 
CCNC(=O)N1CCC2(CCc3cc(-c4ccc5nccn5c4C)ccc3O2)CC1 [Example 110, N-Ethyl-6-(5-methylimidazo[1,2-a]pyridin-6-yl)spiro[chromane-2,4′-piperidine]-1′-carboxamide] |  | 7.00 to 9.00
CCC(=O)N1CCC2(CCc3cc(-c4ccccn4)ccc3O2)CC1 [Example 215, 1-[6-(2-Pyridyl)spiro[chromane-2,4′-piperidine]-1′-yl]propan-1-one, HCl] |  | 5.00 to 6.00
CCC(=O)N1CCC2(CC1)OCc1cc(-c3ccncc3)ccc1O2 [Example 232, 1-[6-(4-Pyridyl)spiro[4H-1,3-benzodioxine-2,4′-piperidine]-1′-yl]propan-1-one, HCl] | 5.00 to 6.00 | 
COc1c(-c2ccc3c(c2)CCC2(CCN(C(N)=O)CC2)O3)ccc2cccnc12 [Example 175, 6-(8-Methoxy-7-quinolyl)spiro[chromane-2,4′-piperidine]-1′-carboxamide] |  | 7.00 to 9.00
CONC(=O)N1CCC2(CC1)OCc1cc(-c3cnc4ccccc4c3C)ccc1O2 [Example 133, N-Methoxy-6-(4-methyl-3-quinolyl)spiro[4H-1,3-benzodioxine-2,4′-piperidine]-1′-carboxamide] | 7.00 to 9.00 | 
CONC(=O)N1CCC2(CC1)OCc1cc(-c3ccc4cccnc4c3Cl)ccc1O2 [Example 134, 6-(8-Chloro-7-quinolyl)-N-methoxy-spiro[4H-1,3-benzodioxine-2,4′-piperidine]-1′-carboxamide] | 7.00 to 9.00 | 
CCONC(=O)N1CCC2(CCc3cc(-c4cc5ccccc5cn4)ccc3O2)CC1 [Example 149, N-Ethoxy-6-(3-isoquinolyl)spiro[chromane-2,4′-piperidine]-1′-carboxamide] |  | 7.00 to 9.00
CCC(=O)N1CCC2(CC1)OCc1cc(-c3ccc4cccnc4c3OC)ccc1O2 [Example 55, 1-[6-(8-Methoxy-7-quinolyl)spiro[4H-1,3-benzodioxine-2,4′-piperidine]-1′-yl]propan-1-one] | 7.00 to 9.00 | 
CCCNC(=O)N1CCC2(CCc3cc(-c4ccc5c(C)nccc5c4)ccc3O2)CC1 [Example 188, 6-(1-methyl-6-isoquinolyl)-N-propyl-spiro[chromane-2,4′-piperidine]-1′-carboxamide] |  | 7.00 to 9.00
Cc1c(-c2ccc3c(c2)CCC2(CCN(C(N)=O)CC2)O3)ccc2nccn12 [Example 109, 6-(5-Methylimidazo[1,2-a]pyridin-6-yl)spiro[chromane-2,4′-piperidine]-1′-carboxamide] |  | 6.00 to 7.00
Cc1c(-c2ccc3c(c2)CCC2(CCN(C(=O)NC(C)C)CC2)O3)ccc2ccnn12 [Example 113, N-Isopropyl-6-(7-methylpyrazolo[1,5-a]pyridin-6-yl)spiro[chromane-2,4′-piperidine]-1′-carboxamide] |  | 6.00 to 7.00
O=C(C1CC1)N1CCC2(CCc3cc(-c4ccncc4)ccc3O2)CC1 [Example 227, Cyclopropyl-[6-(4-pyridyl)spiro[chromane-2,4′-piperidine]-1′-yl]methanone, HCl] |  | 5.00 to 6.00
Cn1cnc2cc(-c3ccc4c(c3)COC3(CCN(C(N)=O)CC3)O4)ccc21 [Example 82, 6-(1-Methylbenzimidazol-5-yl)spiro[4H-1,3-benzodioxine-2,4′-piperidine]-1′-carboxamide] | 6.00 to 7.00 | 
